Reference: US9902696B2, “1,4-substituted piperidine derivatives” (Cephalon, Inc., priority 2015, dated 2018)
Counter-ions that a name gives are not always drawn. Like-named read-outs stand apart in the source and are kept apart here.

Molecular target: T1, recombinant human baculovirus-expressed GST-tagged FASN (Homo sapiens, UniProt P49327)
T1 construct: GST
Assay: FASN enzyme activity assay, fluorescence-based detection of CoA with CPM
Assay type: biochemical
Settings: 5 nM FASN, 150 μM NADPH, 10 μM acetyl-CoA, 25 μM malonyl-CoA, 90 minutes incubation
Text: FASN Enzyme activity may be determined by detecting coenzyme A (CoA), a product of FASN-catalyzed synthesis of palmitate from acetyl-CoA and malonyl-CoA with NADPH as a cofactor. The assay is fluorescence-based and measures the interaction of free CoA with 7-diethylamino-3-(4′-malemimidylphenyl)-4-methylcoumarin (CPM; Life Technologies, CA) as described in Chung et al (2008). The coumarin derivative CPM contains a thiol-reactive maleimide that becomes fluorescent upon interaction with the sulfhydryl group of CoA.
For the example compounds described herein, the reaction was performed in 384-well low volume non-binding plates (Corning, N.Y.) using recombinant human baculovirus-expressed GST-tagged FASN. The 20-μL assay mixture contained 50 mM HEPES (pH 7.5), 5 nM FASN, 150 μM NADPH (Sigma, St. Louis, Mo.), 10 μM acetyl-CoA (Sigma), 25 μM malonyl-CoA (Sigma) and test compound [diluted in dimethyl sulfoxide (DMSO); 0.5% DMSO final in assay after 100 nL addition]. See, Chung et al.; “A fluorescence-based thiol quantification assay for ultra-high-throughput screening for inhibitors of coenzyme A production,” Assay Drug Dev Tech 2008; 6:361-374.
The reaction was initiated by adding malonyl-CoA, followed by incubation for 90 minutes at […]. A stock solution of the CPM reagent was prepared in DMSO at […] and stored at […]. To detect CoA produced in the FASN reaction, the CPM stock was diluted to […] in 70% ethanol and added at 4 μL/well to the assay plate. The reaction mixture was then incubated for 30 minutes. Fluorescence was measured using the EnVision™ 2102 multi-label plate reader (PerkinElmer, Waltham, Mass.) utilizing a general dual mirror, a 390 nm excitation filter and a 530 nm emission filter. Data analysis was performed using ActivityBase (IDBS, Guilford, UK). IC50 values were calculated by plotting the percent inhibition versus log 10 of the concentration of the compound, and fitting to the nonlinear regression sigmoidal dose-response (variable slope) equation in XLFit (IDBS).

[1] = read-out: IC50 data for Compounds of Formulae I-V/V(a): Activity
[2] = read-out: IC50 data for Additional Compounds of Formulae I-V(a): Activity

T1 sequence (P49327 whole entry): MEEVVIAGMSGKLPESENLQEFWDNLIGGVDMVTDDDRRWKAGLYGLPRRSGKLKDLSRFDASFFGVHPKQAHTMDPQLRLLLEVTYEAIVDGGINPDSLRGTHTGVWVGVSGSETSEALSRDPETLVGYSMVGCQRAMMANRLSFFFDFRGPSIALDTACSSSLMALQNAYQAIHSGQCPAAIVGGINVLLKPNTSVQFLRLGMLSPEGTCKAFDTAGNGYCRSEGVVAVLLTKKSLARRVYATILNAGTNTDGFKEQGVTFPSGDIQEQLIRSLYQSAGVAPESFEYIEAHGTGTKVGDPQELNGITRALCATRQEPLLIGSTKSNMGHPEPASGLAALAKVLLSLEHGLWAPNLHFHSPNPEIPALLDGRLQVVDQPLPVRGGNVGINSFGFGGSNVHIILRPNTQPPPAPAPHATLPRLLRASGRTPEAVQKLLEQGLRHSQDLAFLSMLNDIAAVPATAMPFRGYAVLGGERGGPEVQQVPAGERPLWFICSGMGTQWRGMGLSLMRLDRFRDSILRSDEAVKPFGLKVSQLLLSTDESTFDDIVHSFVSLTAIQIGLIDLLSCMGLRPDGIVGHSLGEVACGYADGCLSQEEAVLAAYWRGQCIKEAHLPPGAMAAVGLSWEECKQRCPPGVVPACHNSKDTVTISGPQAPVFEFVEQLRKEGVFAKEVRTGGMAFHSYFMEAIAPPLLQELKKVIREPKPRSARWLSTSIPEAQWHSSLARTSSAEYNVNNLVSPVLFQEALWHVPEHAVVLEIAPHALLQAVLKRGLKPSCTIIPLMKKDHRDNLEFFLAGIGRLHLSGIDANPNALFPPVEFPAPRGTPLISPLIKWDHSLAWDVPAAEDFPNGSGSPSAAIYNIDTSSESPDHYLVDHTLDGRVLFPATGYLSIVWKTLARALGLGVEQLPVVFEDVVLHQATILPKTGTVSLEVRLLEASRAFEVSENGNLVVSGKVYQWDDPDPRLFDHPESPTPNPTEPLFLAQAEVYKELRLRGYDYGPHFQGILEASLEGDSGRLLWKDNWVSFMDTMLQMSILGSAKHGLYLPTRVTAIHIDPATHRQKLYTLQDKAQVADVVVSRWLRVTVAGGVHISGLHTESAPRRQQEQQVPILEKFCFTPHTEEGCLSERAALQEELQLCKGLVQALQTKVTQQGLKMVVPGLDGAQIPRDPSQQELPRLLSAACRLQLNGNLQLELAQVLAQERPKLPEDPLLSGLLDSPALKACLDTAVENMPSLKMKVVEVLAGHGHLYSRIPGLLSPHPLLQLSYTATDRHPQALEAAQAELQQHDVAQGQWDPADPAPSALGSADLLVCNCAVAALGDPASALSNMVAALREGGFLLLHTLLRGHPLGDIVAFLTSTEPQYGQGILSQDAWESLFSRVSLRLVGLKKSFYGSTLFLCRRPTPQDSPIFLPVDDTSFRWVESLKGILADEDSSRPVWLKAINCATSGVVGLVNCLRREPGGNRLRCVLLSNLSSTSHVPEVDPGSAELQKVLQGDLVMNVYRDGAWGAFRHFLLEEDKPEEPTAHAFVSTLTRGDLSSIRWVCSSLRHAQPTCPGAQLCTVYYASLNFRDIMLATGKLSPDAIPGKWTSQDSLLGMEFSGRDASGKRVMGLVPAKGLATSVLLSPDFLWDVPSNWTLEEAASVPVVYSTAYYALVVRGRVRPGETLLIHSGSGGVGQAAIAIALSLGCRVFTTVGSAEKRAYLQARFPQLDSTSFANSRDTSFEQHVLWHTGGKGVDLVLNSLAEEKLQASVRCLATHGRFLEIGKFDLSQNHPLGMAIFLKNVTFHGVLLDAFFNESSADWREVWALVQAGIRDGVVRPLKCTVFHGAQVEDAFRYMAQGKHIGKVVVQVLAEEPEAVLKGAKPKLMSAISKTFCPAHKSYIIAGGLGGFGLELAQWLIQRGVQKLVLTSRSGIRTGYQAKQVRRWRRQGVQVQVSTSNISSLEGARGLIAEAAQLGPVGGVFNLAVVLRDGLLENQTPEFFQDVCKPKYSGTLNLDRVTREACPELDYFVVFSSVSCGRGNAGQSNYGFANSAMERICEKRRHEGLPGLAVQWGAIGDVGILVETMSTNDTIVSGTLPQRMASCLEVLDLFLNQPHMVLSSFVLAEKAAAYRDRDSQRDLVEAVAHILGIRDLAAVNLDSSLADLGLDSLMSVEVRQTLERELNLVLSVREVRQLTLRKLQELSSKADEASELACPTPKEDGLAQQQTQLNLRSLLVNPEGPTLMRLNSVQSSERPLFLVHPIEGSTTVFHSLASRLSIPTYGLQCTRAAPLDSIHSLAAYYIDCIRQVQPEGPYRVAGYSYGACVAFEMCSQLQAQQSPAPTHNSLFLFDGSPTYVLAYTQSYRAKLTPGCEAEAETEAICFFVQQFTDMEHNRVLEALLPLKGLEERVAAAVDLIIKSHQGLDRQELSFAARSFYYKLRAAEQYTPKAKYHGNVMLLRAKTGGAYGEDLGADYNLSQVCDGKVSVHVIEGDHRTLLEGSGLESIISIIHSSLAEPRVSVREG

Cc1cc(OC2CCN(C(=O)C(C)C)CC2)ccc1-c1cnc2ccccc2c1 [Example 206, 2-Methyl-1-[4-(3-methyl-4-quinolin-3-yl-phenoxy)-piperidin-1-yl]-propan-1-one]
IC50 [1]: 1000 to 10000 nM

CCONC(=O)N1CCC(Oc2ccc(-c3ccc4nccn4c3C)cc2)CC1 [Example 608, N-Ethoxy-4-[4-(5-methylimidazo[1,2-a]pyridin-6-yl)phenoxy]piperidine-1-carboxamide]
IC50 [2]: 100 to 999 nM

Cc1c(-c2ccc(OC3CCN(C(=O)[C@H]4CCCO4)CC3)cc2)cnc2ccccc12 [Example 65, {4-[4-(4-Methylquinolin-3-yl)-phenoxy]-piperidin-1-yl}-(R)-tetrahydro-furan-2-yl-methanone]
IC50 [1]: 1 to 99 nM

O=C([C@H]1CCCO1)N1CCC(Oc2ccc(-c3ccc4c(N5CCOCC5)nccc4c3)cc2)CC1 [Example 452, {4-[4-(1-Morpholin-4-yl-isoquinolin-6-yl)-phenoxy]-piperidin-1-yl}-(R)-tetrahydrofuran-2-yl-methanone]
IC50 [1]: 1 to 99 nM

Cn1ncc2ccc(-c3ccc(OC4CCN(C(=O)C5CCC5)CC4)cc3)cc21 [Example 271, Cyclobutyl-{4-[4-(1-methyl-1H-indazol-6-yl)-phenoxy]-piperidin-1-yl}-methanone, TFA salt]
IC50 [1]: 100 to 999 nM

CC(C)C(=O)N1CCC(Oc2ccc(-c3ccc(-c4ccccc4)nc3)cc2)CC1 [Example 379, 2-Methyl-1-{4-[4-(6-phenylpyridin-3-yl)-phenoxy]-piperidin-1-yl}-propan-1-one]
IC50 [1]: 1000 to 10000 nM

O=C(C1CC1)N1CCC(Oc2ccc(-c3ccc4cccnc4c3F)cc2)CC1 [Example 23, Cyclopropyl-{4-[4-(8-fluoroquinolin-7-yl)-phenoxy]-piperidin-1-yl}-methanone]
IC50 [1]: 1 to 99 nM

CNc1nccc2cc(-c3ccc(OC4CCN(C(=O)[C@H]5CCCO5)CC4)cc3)ccc12 [Example 456, {4-[4-(1-Methylaminoisoquinolin-6-yl)-phenoxy]-piperidin-1-yl}-(R)-tetrahydrofuran-2-yl-methanone]
IC50 [1]: 1 to 99 nM

CC(C)C(=O)N1CCC(Oc2ccc(-c3cnc4ccccc4c3)cn2)CC1 [Example 133, 2-Methyl-1-[4-(5-quinolin-3-yl-pyridin-2-yloxy)-piperidin-1-yl]-propan-1-one, HCl]
IC50 [1]: 1000 to 10000 nM

CN1CCN(CCOc2c(-c3ccc(OC4CCN(C(=O)[C@H]5CCCO5)CC4)cc3)ccc3cccnc23)CC1 [Example 185, [4-[4-[8-[2-(4-Methylpiperazin-1-yl)ethoxy]-7-quinolyl]phenoxy]-1-piperidyl]-[(2R)-tetrahydrofuran-2-yl]methanone, HCl]
IC50 [1]: 100 to 999 nM

CONC(=O)N1CCC(Oc2ccc(-c3ccc4ccnn4c3C)cc2)CC1 [Example 539, N-Methoxyoxy-4-[4-(7-methylpyrazolo[1,5-a]pyridin-6-yl)phenoxy]piperidine-1-carboxamide]
IC50 [2]: 1 to 99 nM

CCC(=O)N1CCC(Oc2ccc(-c3cnc4ccccc4c3Cl)cc2)CC1 [Example 47, 1-{4-[4-(4-Chloroquinolin-3-yl)-phenoxy]-piperidin-1-yl}-propan-1-one]
IC50 [1]: 1 to 99 nM

O=C(c1cccc(-c2ncc[nH]2)c1)N1CCC(Oc2ccc(-c3cnc4ccccc4c3)cc2)CC1 [Example 129, [3-(1H-Imidazol-2-yl)-phenyl]-[4-(4-quinolin-3-yl-phenoxy)-piperidin-1-yl]-methanone, HCl]
IC50 [1]: 1000 to 10000 nM

CCC(=O)N1CCC(C(=O)N(C)c2ccc(-c3ccc4cnccc4c3)cc2)CC1 [Example 151, 1-Propionyl-piperidine-4-carboxylic acid (4-isoquinolin-6-yl-phenyl)-methylamide]
IC50 [1]: 100 to 999 nM

CCC(=O)N1CCC(Oc2ccc(-c3cc4ccccc4o3)cc2)CC1 [Example 245, 1-[4-(4-Benzofuran-2-yl-phenoxy)-piperidin-1-yl]-propan-1-one]
IC50 [1]: 100 to 999 nM

Cc1cncc2cc(-c3ccc(OC4CCN(C(=O)[C@H]5CCCO5)CC4)cc3)ccc12 [Example 459, {4-[4-(4-Methylisoquinolin-6-yl)-phenoxy]-piperidin-1-yl}-(R)-tetrahydrofuran-2-yl-methanone, HCl]
IC50 [1]: 1 to 99 nM

COc1cccc2ncc(-c3ccc(OC4CCN(C(=O)[C@H]5CCCO5)CC4)cc3)cc12 [Example 465, {4-[4-(5-Methoxyquinolin-3-yl)-phenoxy]-piperidin-1-yl}-(R)-tetrahydro-furan-2-yl-methanone, HCl]
IC50 [1]: 100 to 999 nM

CCC(=O)N1CCC(Oc2ccc(-c3cc(OC)c4ccnn4c3)cc2)CC1 [Example 410, 1-{4-[4-(4-Methoxypyrazolo[1,5-a]pyridin-6-yl)-phenoxy]-piperidin-1-yl}-propan-1-one, HCl]
IC50 [1]: 100 to 999 nM

O=C([C@H]1CCCO1)N1CCC(Oc2ccc(-c3ccc4scnc4c3)cc2)CC1 [Example 267, [4-(4-Benzothiazol-5-yl-phenoxy)-piperidin-1-yl]-(R)-tetrahydrofuran-2-yl-methanone, TFA salt]
IC50 [1]: 1 to 99 nM

O=C(c1ccccc1)N1CCC(Oc2ccc(-c3cnc4ccccc4c3)cc2)CC1 [Example 127, Phenyl-[4-(4-quinolin-3-yl-phenoxy)-piperidin-1-yl]-methanone, HCl]
IC50 [1]: 1000 to 10000 nM

CCC(=O)N1CCC(Oc2ccc(-c3ccc4cccnc4c3N(C)C)cc2)CC1 [Example 332, 1-{4-[4-(8-Dimethylaminoquinolin-7-yl)-phenoxy]-piperidin-1-yl}-propan-1-one]
IC50 [1]: 1000 to 10000 nM

1-{4-[4-(4-Methylisoquinolin-6-yl)-phenox]-piperidin-1-yl}-propan-1-one HCl [Example 457]
IC50 [1]: 1 to 99 nM

Cc1c(-c2ccc(OC3CCN(C(=O)CN(C)C)CC3)cc2)ccc2cccnc12 [Example 614, 2-(Dimethylamino)-1-[4-[4-(8-methyl-7-quinolyl)phenoxy]-1-piperidyl]-ethanone]
IC50 [2]: 1000 to 10000 nM

CCC(=O)N1CCC(Oc2ccc(-c3ccc(C#N)cc3)cc2)CC1 [Example 493, 4′-(1-Propionyl-piperidin-4-yloxy)-biphenyl-4-carbonitrile]
IC50 [1]: 1000 to 10000 nM

CCC(=O)N1CCC(Oc2ccc(-c3ccc4c(Cl)ccnc4c3)cc2)CC1 [Example 259, 1-{4-[4-(4-Chloroquinolin-7-yl)-phenoxy]-piperidin-1-yl}-propan-1-one, TFA salt]
IC50 [1]: 100 to 999 nM

CCC(=O)N1CCC(Oc2ccc(-c3ccc4cncn4c3)cc2)CC1 [Example 299, 1-[4-(4-Imidazo[1,5-a]pyridin-6-yl-phenoxy)-piperidin-1-yl]-propan-1-one]
IC50 [1]: 1000 to 10000 nM

Cc1c(-c2ccc(OC3CCN(C(=O)OC4CCOC4)CC3)cc2)ccc2cccnc12 (stereo not drawn) [Example 559, Tetrahydrofuran-3-yl 4-[4-(8-methyl-7-quinolyl)phenoxy]piperidine-1-carboxylate]
IC50 [2]: 1 to 99 nM

CC(C)(C)OC(=O)N1CCC(Oc2ccc(-c3ccc(C#N)cc3)cc2)CC1 [Example 490, 4-(4′-Cyano-biphenyl-4-yloxy)-piperidine-1-carboxylic acid t-butyl ester]
IC50 [1]: 1000 to 10000 nM

Cc1c(-c2ccc(OC3CCN(C(=O)CCN)CC3)cc2)ccc2cccnc12 [Example 623, 3-Amino-1-[4-[4-(8-methyl-7-quinolyl)phenoxy]-1-piperidyl]propan-1-one, 2HCl]
IC50 [2]: 1000 to 10000 nM

O=C([C@H]1CCCO1)N1CCC(Oc2ccc(-c3ccc4cccnc4c3O)cc2)CC1 [Example 190, {4-[4-(8-Hydroxyquinolin-7-yl)-phenoxy]-piperidin-1-yl}-(R)-tetrahydro-furan-2-yl-methanone, HCl]
IC50 [1]: 1 to 99 nM
